Measured values published in patent US20230286973A1, “PROTEIN SECRETION INHIBITORS” (KEZAR LIFE SCIENCES, priority 2020, published 2023).
Where two headings read alike, the source gives them in different places.

What was measured:
[1] = system: PD1-ss+10aa/Gaussia Luciferase; experiment: Dox-Induced PD1-ss-Gluc Assay; type: cell-based; conditions: 24 hr Dox induction, 293FRT/TO cells, read-out: 24 hr Dox Inducible PD1ssGluc 293FRT/TO: Mean IC50
Method in brief: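 Compounds were added in DMSO/media with doxycycline and incubated at 37 °C, 5% CO2, on 293 T-REx cells plated one day earlier. These cells stably express, under tetracycline-regulated control, a Gaussia luciferase fused to the PD1 signal peptide plus 10 residues. Structures drawn without stereochemistry were tested as stereoisomer mixtures.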

[2] = system: TNFα-FL/Gaussia Luciferase; experiment: Dox Induced TNFα-FL-Gluc Assay; type: cell-based; conditions: for IC50: 24 hr Dox induction, 293FRT/TO cells, read-out: 24 hr Dox Inducible TNFaFLGluc 293FRT/TO: Mean IC50; for 24 hr Dox Inducible TNFaFLGluc 293FRT/TO: TNF/PD1: ratio of TNFaFLGluc IC50 to PD1ssGluc IC50
Method in brief: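 Cells are seeded one day ahead, then treated with compound plus doxycycline at 37 °C, 5% CO2. The stable Flp-In 293 T-REx line expresses full-length TNFα (amino acids 1-233) with Gaussia luciferase fused to its 3′ end, inducibly via T-REx.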

[3] = system: HER3-ss+4aa/Gaussia Luciferase; experiment: Dox-Induced Her3-ss-Gluc Assay; type: cell-based; conditions: 24 hr Dox induction, 293FRT/TO cells, read-out: 24 hr Dox Inducible Her3(ss + 4)Gluc 293FRT/TO: Mean IC50
Method in brief: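 Expression of a Gaussia luciferase reporter carrying the HER3 signal sequence plus 4 amino acids is induced by doxycycline in stably transfected Flp-In 293 T-REx cells. Compounds are added with doxycycline at 37° C., 5% CO2. Undefined stereocentres denote stereoisomer mixtures.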

[4] = system: IL-2-FL/Gaussia Luciferase; experiment: Dox Induced IL2-FL-Gluc Assay; type: cell-based; conditions: for IC50: 24 hr Dox induction, 293FRT/TO cells, read-out: 24 hr Dox Inducible IL2FLGluc 293FRT/TO: Mean IC50; for 24 hr Dox Inducible IL2FLGluc 293FRT/TO: IL2/PD1: ratio of IL2FLGluc IC50 to PD1ssGluc IC50
Method in brief: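 Reporter is Gaussia luciferase fused to the 3′ end of full-length IL-2 (aa 1-153), expressed from a doxycycline-inducible T-REx construct in stably selected Flp-In 293 cells. Compounds were co-added with doxycycline and incubated at 37° C, 5% CO2.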

[5] = system: multiple myeloma cell line NCI-H929; experiment: H929 Cell Viability Assay; type: cell-based, human; conditions: Homo sapiens, NCI-H929, 48 h, NCI-H929 cells, Celltiter-Glo
Method in brief: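 Plate the myeloma cells in RPMI 1640 with 10% FBS, add serially diluted compound, incubate for 48 hours at 37° C, then add CellTiter-Glo and read luciferase signal.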

[6] = system: multiple myeloma cell line U266B1; experiment: U266 Cell Viability Assay; type: cell-based, human; conditions: Homo sapiens, U-266, 48 h, U266B1 cells, Celltiter-Glo
Method in brief: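 48 h treatment, 37° C./5% CO2, RPMI 1640 + 10% FBS; viability by CellTiter-Glo luminescence.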

[7] = Liver Microsome Stability Assay (rat); conditions: rat liver microsomes, with NADPH, 1.0 uM compound
Procedure: (§1) Stability of a compound was assessed in the presence of liver microsomes from various sources—mouse, rat, monkey and human liver microsomes. 1.0 uM compound, 0.4% DMSO in 0.1 M Potassium Phosphate with 1.0 mg/mL liver microsomes, were incubated at 37° C. with or without 1 mM NADPH. The samples were quenched at 0, and 30 minutes.

[8] = Liver Microsome Stability Assay (mouse); conditions: mouse liver microsomes, with NADPH, 1.0 uM compound
Procedure: as §1

[9] = Liver Microsome Stability Assay (human); conditions: human liver microsomes, with NADPH, 1.0 uM compound
Procedure: as §1

[10] = Liver Microsome Stability Assay (monkey); conditions: monkey liver microsomes, with NADPH, 1.0 uM compound
Procedure: as §1

[11] = '<=>' given where both are I.A.

Compound	IC50 [1] [µM]	IC50 [2] [µM]	IC50 [3] [µM]	IC50 [4] [µM]	EC50 [5] [µM]	EC50 [6] [µM]	Liver Microsome Stability (Multiple Species): Rat - % Remaining after 30 min w/NADPH [7] [%]	Liver Microsome Stability (Multiple Species): Mouse - % Remaining after 30 min w/NADPH [8] [%]	Liver Microsome Stability (Multiple Species): Human - % Remaining after 30 min w/NADPH [9] [%]	Liver Microsome Stability (Multiple Species): Monkey - % Remaining after 30 min w/NADPH [10] [%]	IC50 ([1]; mean) [µM]	IC50 ([2]; mean) [µM]	IC50 ([3]; mean) [µM]	IC50 ([4]; mean) [µM]	24 hr Dox Inducible TNFaFLGluc 293FRT/TO: TNF/PD1 [2]	24 hr Dox Inducible IL2FLGluc 293FRT/TO: IL2/PD1 [4]	24 hr Dox Inducible TNFaFLGluc 293FRT/TO: TNF/PD1 [2, 11]	24 hr Dox Inducible IL2FLGluc 293FRT/TO: IL2/PD1 [4, 11]
NC(=O)N1CCC(Oc2ccc(N3CCC[C@@H]3c3csc(NC(=O)c4cccn4Cc4ccnc(F)c4)n3)cn2)CC1 [Compound A159, (R)-4-((5-(2-(2-(1-((2-fluoropyridin-4-yl)methyl)-1H-pyrrole-2-carboxamido)thiazol-4-yl)pyrrolidin-1-yl)pyridin-2-yl)oxy)piperidine-1-carboxamide]	0.0279	0.79	0.0358	0.0806	1.62	> 25	19.7	36	9.01	3.91	–	–	–	–	28.3	2.9	–	–
CC(=O)Nc1ccc(N2CCC[C@@H]2c2csc(NC(=O)c3cc(C)cn3Cc3ccnc(F)c3)n2)cc1 [Compound A164, (R)-N-(4-(1-(4-acetamidophenyl)pyrrolidin-2-yl)thiazol-2-yl)-1-((2-fluoropyridin-4-yl)methyl)-4-methyl-1H-pyrrole-2-carboxamide]	0.00795	0.148	0.0173	0.0191	0.274	> 25	19.4	18.8	36.5	32.3	–	–	–	–	18.7	2.4	–	–
COCCn1cnc(/C=C/c2csc(NC(=O)c3cccn3Cc3ccncc3)n2)c1 [Compound B56, (E)-N-(4-(2-(1-(2-methoxyethyl)-1H-imidazol-4-yl)vinyl)thiazol-2-yl)-1-(pyridin-4-ylmethyl)-1H-pyrrole-2-carboxamide]	0.52	> 25	> 25	> 25	> 25	> 25	0.57	1.72	0.46	0.27	–	–	–	–	>48.0	>48	–	–
CNS(=O)(=O)N1CC(Oc2ccc(N3CCC[C@@H]3c3csc(NC(=O)c4cccn4Cc4ccnc(F)c4)n3)cc2)C1 [Compound A151, (R)-1-((2-fluoropyridin-4-yl)methyl)-N-(4-(1-(4-((1-(N-methylsulfamoyl)azetidin-3-yl)oxy)phenyl)pyrrolidin-2-yl)thiazol-2-yl)-1H-pyrrole-2-carboxamide]	0.0215	0.386	0.0431	0.059	1.39	> 25	38.3	15.3	7.69	0.95	–	–	–	–	17.9	2.7	–	–
O=C(Nc1nc([C@H]2CCCN2c2ccc([N+](=O)[O-])cc2)cs1)c1cccn1Cc1ccncc1 [Compound A27, (R)-N-(4-(1-(4-nitrophenyl)pyrrolidin-2-yl)thiazol-2-yl)-1-(pyridin-4-ylmethyl)-1H-pyrrole-2-carboxamide]	0.0579	1.1	0.109	0.144	5.79	> 25	0.33	6.54	1.61	0.51	–	–	–	–	19.1	2.5	–	–
CN(C)C(=O)N1CCC(Oc2ccc(N3CCC[C@@H]3c3csc(NC(=O)c4cccn4Cc4ccnc(F)c4)n3)cc2)CC1 [Compound A137, (R)-4-(4-(2-(2-(1-((2-fluoropyridin-4-yl)methyl)-1H-pyrrole-2-carboxamido)thiazol-4-yl)pyrrolidin-1-yl)phenoxy)-N,N-dimethylpiperidine-1-carboxamide]	0.0322	0.566	0.0515	0.0614	0.948	> 25	24.2	1.78	4.35	2.57	–	–	–	–	17.6	1.9	–	–

The next lines start with results.

IC50 [1] [µM]	IC50 [2] [µM]	IC50 [3] [µM]	IC50 [4] [µM]	EC50 [5] [µM]	EC50 [6] [µM]	Liver Microsome Stability (Multiple Species): Rat - % Remaining after 30 min w/NADPH [7] [%]	Liver Microsome Stability (Multiple Species): Mouse - % Remaining after 30 min w/NADPH [8] [%]	Liver Microsome Stability (Multiple Species): Human - % Remaining after 30 min w/NADPH [9] [%]	Liver Microsome Stability (Multiple Species): Monkey - % Remaining after 30 min w/NADPH [10] [%]	IC50 ([1]; mean) [µM]	IC50 ([2]; mean) [µM]	IC50 ([3]; mean) [µM]	IC50 ([4]; mean) [µM]	Compound	24 hr Dox Inducible TNFaFLGluc 293FRT/TO: TNF/PD1 [2]	24 hr Dox Inducible IL2FLGluc 293FRT/TO: IL2/PD1 [4]	24 hr Dox Inducible TNFaFLGluc 293FRT/TO: TNF/PD1 [2, 11]	24 hr Dox Inducible IL2FLGluc 293FRT/TO: IL2/PD1 [4, 11]
–	–	–	–	3.65	> 25	1.71	1.99	0.19	0.67	0.036	0.9	0.107	0.157	NC(=O)c1ccc(N2CCC[C@@H]2c2csc(NC(=O)c3cccn3CC3CCOCC3)n2)cc1 [Compound C105, (R)-N-(4-(1-(4-carbamoylphenyl)pyrrolidin-2-yl)thiazol-2-yl)-1-((tetrahydro-2H-pyran-4-yl)methyl)-1H-pyrrole-2-carboxamide]	–	–	25	4.4
–	–	–	–	> 25	> 25	6.02	5.51	24.8	6.55	1.03	7.54	1.06	1.59	O=C(Nc1nc([C@H]2CCCN2c2ccccc2)cs1)c1cccn1CCCC1COC1 [Compound C116, (R)-1-(3-(oxetan-3-yl)propyl)-N-(4-(1-phenylpyrrolidin-2-yl)thiazol-2-yl)-1H-pyrrole-2-carboxamide]	–	–	7.3	1.5
–	–	–	–	> 25	> 25	0.18	2.58	1.6	0.1	1.23	> 25	3.92	14.8	O=C(Nc1nc(C2C3CN(c4ccccn4)CC32)cs1)c1cccn1Cc1ccncc1 (stereo not drawn) [Compound E33, N-(4-(3-(pyridin-2-yl)-3-azabicyclo[3.1.0]hexan-6-yl)thiazol-2-yl)-1-(pyridin-4-ylmethyl)-1H-pyrrole-2-carboxamide]	–	–	>20.3	12
